The Kd is a measure of binding affinity in units of concentration.

For one compound, Kd results are on record in PMC5008829, “Computational Analysis of the Ligand Binding Site of the Extracellular ATP Receptor, DORN1” (PLoS ONE, 2016).

Structures are written as SMILES.

Holding throughout (assay): radioligand saturation binding, Sephadex G-25 gel filtration
The target of test [1] is T1, DORN1 WT (LEC), lectin domain only (Arabidopsis thaliana, UniProt Q9LSR8).
T1 construct: gene LECRK19; L-type lectin domain only, recombinant from E. coli (GST fusion likely)
T1 sequence (Q9LSR8 22-257 limits assumed): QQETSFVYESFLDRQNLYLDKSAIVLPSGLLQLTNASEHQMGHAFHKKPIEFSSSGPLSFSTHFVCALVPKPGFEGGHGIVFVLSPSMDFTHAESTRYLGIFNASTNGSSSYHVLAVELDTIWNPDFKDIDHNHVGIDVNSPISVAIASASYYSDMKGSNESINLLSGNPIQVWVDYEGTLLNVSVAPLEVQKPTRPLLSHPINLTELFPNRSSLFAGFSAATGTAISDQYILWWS
Conditions: [γ-32P]ATP labelled compound; 10 mM HEPES pH 7.5, 5 mM MgCl2, on ice 30 min. The text has this:
radioligand saturation binding, Sephadex G-25 gel filtration on DORN1 WT (LEC), lectin domain only | WT (LEC): lectin domain only, WT (ECD): extracellular domain

For test [2], the target named is T2, DORN1 WT (ECD), extracellular domain (Arabidopsis thaliana, UniProt Q9LSR8, DEL141-146).
T2 construct: gene LECRK19; extracellular domain, signal peptide removed, pGEX-5X N-terminal GST fusion, E. coli BL21-AI, glutathione Sepharose; primers encode QETSFVY...APHKKVST
T2 sequence (Q9LSR8 with tags, fused parts or gaps DEL141-146): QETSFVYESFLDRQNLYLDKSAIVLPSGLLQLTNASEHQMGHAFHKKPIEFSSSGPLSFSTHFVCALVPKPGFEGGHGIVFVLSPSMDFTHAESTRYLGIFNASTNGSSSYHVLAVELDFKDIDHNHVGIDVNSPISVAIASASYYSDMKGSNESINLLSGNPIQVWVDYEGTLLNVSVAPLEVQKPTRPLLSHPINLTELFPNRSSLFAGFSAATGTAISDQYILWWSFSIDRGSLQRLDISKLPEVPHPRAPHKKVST

For test [3], the target named is T3, DORN1 WT (ECD), extracellular domain (Arabidopsis thaliana, UniProt Q9LSR8).
T3 construct: gene LECRK19; extracellular domain, signal peptide removed, pGEX-5X N-terminal GST fusion, E. coli BL21-AI, glutathione Sepharose; primers encode QETSFVY...APHKKVST
T3 sequence (Q9LSR8 23-288): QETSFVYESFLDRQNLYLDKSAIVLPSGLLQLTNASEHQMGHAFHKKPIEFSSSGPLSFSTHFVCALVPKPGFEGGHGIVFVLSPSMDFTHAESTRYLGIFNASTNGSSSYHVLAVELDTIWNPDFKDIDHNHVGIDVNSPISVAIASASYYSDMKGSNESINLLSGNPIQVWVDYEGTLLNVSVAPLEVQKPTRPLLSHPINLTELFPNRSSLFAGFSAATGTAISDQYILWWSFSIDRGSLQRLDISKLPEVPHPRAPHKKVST

The target of test [4] is T4, DORN1 WT (ECD), extracellular domain (Arabidopsis thaliana, UniProt Q9LSR8, DEL116-118).
T4 construct: gene LECRK19; extracellular domain, signal peptide removed, pGEX-5X N-terminal GST fusion, E. coli BL21-AI, glutathione Sepharose; primers encode QETSFVY...APHKKVST
T4 sequence (Q9LSR8 with tags, fused parts or gaps DEL116-118): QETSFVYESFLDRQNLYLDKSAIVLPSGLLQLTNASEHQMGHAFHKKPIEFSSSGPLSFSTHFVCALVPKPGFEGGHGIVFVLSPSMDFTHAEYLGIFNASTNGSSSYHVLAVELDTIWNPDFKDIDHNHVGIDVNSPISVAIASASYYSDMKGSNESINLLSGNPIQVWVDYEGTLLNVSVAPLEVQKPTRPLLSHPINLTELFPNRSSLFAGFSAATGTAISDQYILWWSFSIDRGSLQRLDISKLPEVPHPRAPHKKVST

On to `Nc1ncnc2c1ncn2[C@@H]1O[C@H](COP(=O)(O)OP(=O)(O)OP(=O)(O)O)[C@@H](O)[C@H]1O` [ATP], for which the Kd in test [1] was determined as 52.6 nM; in test [2], 190 nM; in test [3], 38.3 nM; in test [4] it was 534 nM.
